Patent publication US20230135945A1, “Method for Measuring Modulation in the Activity of a G Protein-Coupled Receptor” (CISBIO BIOASSAYS, priority 2017, published 2023)
Entries after “also recorded” stand apart in the source; their conditions may differ. Where no end group is shown, it is not given here.

How the values were obtained:
Delta Opioid GPCR [1] = biological target: T1, Delta Opioid GPCR (Homo sapiens, UniProt P41143); assay: Activation test according to format 1A (TR-FRET, empty Galpha vs GDP-bound full form), HEK293 membranes; type: biochemical; conditions: GDP 10 μM
T1 construct: purchased Perkin Elmer 6110549400UA (HEK293)
T1 sequence (P41143 whole entry): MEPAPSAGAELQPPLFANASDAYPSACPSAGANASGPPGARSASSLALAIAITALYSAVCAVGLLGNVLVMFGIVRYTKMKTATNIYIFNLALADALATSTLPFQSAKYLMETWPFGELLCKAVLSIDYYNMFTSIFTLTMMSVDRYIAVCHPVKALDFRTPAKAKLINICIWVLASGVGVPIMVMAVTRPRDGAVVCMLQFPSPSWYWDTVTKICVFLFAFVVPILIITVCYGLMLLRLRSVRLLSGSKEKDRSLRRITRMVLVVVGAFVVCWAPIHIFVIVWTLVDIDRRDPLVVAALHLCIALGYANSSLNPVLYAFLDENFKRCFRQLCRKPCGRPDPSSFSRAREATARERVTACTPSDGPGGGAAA
Procedure: (§1) All reagents were diluted in TrisHCl 50 mM pH 7.4, MgCl2 10 mM, NaCl 10 mM, BSA 0.1% buffer. The membranes were prepared 4× to distribute 1 μg/well (except for other specifications). The GDP, GTP or GTPγS nucleotides and test compounds (agonists or antagonists) were pre-mixed and prepared 4× to obtain the final concentrations in the wells mentioned in the graphs. […]
The plates were incubated at 21° C. for 3 h or 20 h and then the HTRF signal was measured on the PHERAstar reader (BMG Labtech) with the following configuration: • Module: HTRF (Excitation 337nm, Emission 665nm and 620nm) • Excitation: laser, 40 flashes • Reading window: delays: 60 μs—Integration: 400 μs […]

Delta Opioid GPCR [2] = biological target: T1, Delta Opioid GPCR; assay: Activation test according to format 2A (TR-FRET, empty Galpha vs GTP/GTPγS-bound full form), HEK293 membranes; type: biochemical
Delta Opioid GPCR [3] = biological target: T1, Delta Opioid GPCR; assay: Activation test according to format 2B (TR-FRET, full Galpha bound to GTPγS vs empty form), membranes expressing Delta Opioid GPCR and Galphai protein; type: biochemical; conditions: for TR-FRET signal (HTRF ratio), inhibition of agonist activation by antagonist: SNC162 fixed 10 nM
Procedure: All reagents were diluted in TrisHCl 50 mM pH 7.4, MgCl2 10 mM, NaCl 10 mM, BSA 0.1% buffer. The membranes were prepared 4× to distribute 1 μg/well (except for other specifications). The GDP, GTP or GTPγS nucleotides and test compounds (agonists or antagonists) were pre-mixed and prepared 4× to obtain the final concentrations in the wells mentioned in the graphs. All anti-Galphai reagents used for detection were prepared 4× to target the following final concentrations in the following wells: sdAbs-d2 (50 nM); antibody SC13533-d2 (0.1 nM); antibody SC13533-Lumi4Tb (0.25 nM); antibody DSV36S-d2 (0.1 nM); antibody DSV36S-Lumi4Tb (0.25 nM); antibody DSV3S-d2 (10 nM); antibody DSV39S-d2 (10 nM); antibody DSV26S-Lumi4Tb (0.25 nM); peptide KB1753-Biotin (50 nM) in combination with streptavidin-XL665 (SA-XL) (25 nM) (pre-incubated 30 minutes at room temperature before distribution in plates). • Distribution of reagents in the 384-well plates: • Membranes expressing GPCR and G protein: 5 μL • Nucleotides (GDP or GTP or GTPγS) ±Test compounds (agonists and/or antagonists): 5 μL • Anti-Galphai-acceptor ligand (d2 or XL665): 5 μL • Anti-Galphai-donor ligand (Lumi4Tb): 5 μL
(§2) The plates were incubated at 21° C. for 3 h or 20 h and then the HTRF signal was measured on the PHERAstar reader (BMG Labtech) with the following configuration: • Module: HTRF (Excitation 337nm, Emission 665nm and 620nm) • Excitation: laser, 40 flashes • Reading window: delays: 60 μs—Integration: 400 μs
After activation of GPCR and Galpha protein by a GPCR agonist, the decrease in the proportion of the full Galpha protein form bound to GTP or bound to GTPγS (due to an increase in the proportion of the empty Galpha protein form) is specifically detected using two ligands labeled with RET partners. Activation of GPCR results in a decrease in the RET signal.
In a second step, the ability of a GPCR agonist to modulate the proportion of Galpha protein in empty form was tested with the same membranes and detection ligand pairs. HEK293 cell membranes expressing Delta Opioid GPCR and Galphai protein were incubated with GTPγS (10 nM) and GPCR agonist (SNC162) in increasing concentration. […] In a second condition, activation with a fixed concentration of GPCR agonist SNC162 (10 nM) was inhibited by an increasing concentration of GPCR antagonist (Naltrindole).
On the other hand, membranes (10 μg/wells) of HEK293 or CHO-K1 cells expressing the Delta Opioid GPCR and Galphai protein were incubated with GTPγS (100 nM) alone or in combination with a saturated fixed concentration (1 μM) of the receptor agonist (SNC162).
In a first condition, HEK293 cell membranes expressing Delta Opioid GPCR and Galphai protein were incubated with GTPγS (10 nM) and a GPCR agonist (SNC162) in increasing concentration.

5HT1A = biological target: T2, 5HT1A (Homo sapiens, UniProt P08908); assay: Activation test format 2B on 5HT1A membranes (Example 7); type: biochemical; conditions: HEK293 membranes 10 μg/well, GTPγS 100 nM, agonist 1 μM (FIG. 10)
T2 construct: purchased Perkin Elmer RBHS1AM400UA; host or cells: HEK293-EBNA
T2 sequence (P08908 1-422): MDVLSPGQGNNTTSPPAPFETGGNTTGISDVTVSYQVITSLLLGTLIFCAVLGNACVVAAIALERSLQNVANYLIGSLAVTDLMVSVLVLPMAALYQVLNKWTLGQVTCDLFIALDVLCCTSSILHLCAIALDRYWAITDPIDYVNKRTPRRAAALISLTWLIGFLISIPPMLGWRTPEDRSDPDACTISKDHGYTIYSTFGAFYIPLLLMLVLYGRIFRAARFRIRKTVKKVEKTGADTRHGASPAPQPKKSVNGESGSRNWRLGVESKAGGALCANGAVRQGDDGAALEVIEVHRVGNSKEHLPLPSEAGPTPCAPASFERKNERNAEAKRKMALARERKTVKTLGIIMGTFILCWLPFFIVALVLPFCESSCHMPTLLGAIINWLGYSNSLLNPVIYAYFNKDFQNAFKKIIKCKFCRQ
Procedure: as §1, §2

Galpha protein = assay: Binding specificity of detection ligands for the forms of the Galpha protein
Procedure: In order to evaluate the selectivity of antibodies between the different forms of the Galphai1 protein (GDP-bound full form vs. GTPgS-bound full form vs. empty form), the test was performed in parallel on TST-Galphai1 protein conditions pre-incubated in the buffer containing either GDP at 1 μM, GTPgS at 1 μM or no nucleotide. The best hybridomas were then cloned with a limit dilution step to obtain hybridoma clones.
• the anti-Galphai antibody SC13533 was purchased from Santa Cruz Biotechnology (catalogue number SC13533). […] The antibodies were labeled with compatible fluorescent probes for TR-FRET detection (red—d2 acceptor or Lumi4Tb donor).

Oc1ccc2c3c1O[C@H]1c4[nH]c5ccccc5c4C[C@@]4(O)[C@@H](C2)N(CC2CC2)CC[C@]314 [Naltrindole]
TR-FRET signal (HTRF ratio), inhibition of agonist activation by antagonist (Delta Opioid GPCR [1]; SNC162 fixed 10 nM, antagonist in increasing concentration (FIG. 8B)): decrease in the TR-FRET signal | TR-FRET signal (HTRF ratio), inhibition of agonist activation by antagonist (Delta Opioid GPCR [2]; GTPγS 10 nM, SNC162 fixed 10 nM, antagonist in increasing concentration (FIG. 9B)): decrease in the TR-FRET signal | TR-FRET signal (HTRF ratio), inhibition of agonist activation by antagonist (Delta Opioid GPCR [3]; Example 9, format 2B, GTPγS 10 nM, antagonist in increasing concentration (FIG. 12B)): increase in the TR-FRET signal | TR-FRET signal (HTRF ratio), inhibition of agonist activation by antagonist (Delta Opioid GPCR [3]; Example 10, format 2B, GTPγS 10 nM, antagonist in increasing concentration, FIGS. 13B-18B): increase in the TR-FRET signal | TR-FRET signal (HTRF ratio), inhibition of agonist activation by antagonist (Delta Opioid GPCR [3]; format 2B, HEK293 membranes, GTPγS 10 nM, antagonist in increasing concentration, Examples 1-3): increase in the TR-FRET signal

C=CCN1C[C@H](C)N([C@@H](c2ccccc2)c2ccc(C(=O)N(CC)CC)cc2)C[C@H]1C [SNC162]
TR-FRET signal (HTRF ratio) generated by stimulation with the agonist (Delta Opioid GPCR [1]; agonist in increasing concentration, DSV39S-d2 + DSV26S-Lumi4Tb (FIG. 8B)): increase in the TR-FRET signal | TR-FRET signal (HTRF ratio) generated by stimulation with the agonist (Delta Opioid GPCR [2]; Example 8, GTP 50, 1000 or 20000 nM, agonist 1 μM, membranes 1 μg/well, amplitude lower than with GTPγS (FIG. 11)): increase in the TR-FRET signal | TR-FRET signal (HTRF ratio) generated by stimulation with the agonist (Delta Opioid GPCR [2]; Example 8, GTPγS 50, 1000 or 20000 nM, agonist 1 μM, membranes 1 μg/well (FIG. 11)): increase in the TR-FRET signal | TR-FRET signal (HTRF ratio) generated by stimulation with the agonist (Delta Opioid GPCR [2]; GTPγS 10 nM, agonist in increasing concentration, DSV39S-d2 + DSV26S-Lumi4Tb (FIG. 9B)): increase in the TR-FRET signal | TR-FRET signal (HTRF ratio) generated by stimulation with the agonist (Delta Opioid GPCR [3]; Example 7, CHO-K1 membranes 10 μg/well, GTPγS 100 nM, agonist 1 μM (FIG. 10)): decrease in the TR-FRET signal | TR-FRET signal (HTRF ratio) generated by stimulation with the receptor agonist (Delta Opioid GPCR [3]; Example 7, HEK293 membranes 10 μg/well, GTPγS 100 nM, agonist 1 μM, KB1753-biotin/SA-XL + SC13533-Lumi4Tb (FIG. 10)): decrease in the TR-FRET signal | TR-FRET signal (HTRF ratio) generated by stimulation with the agonist (Delta Opioid GPCR [3]; Example 9, format 2B, GTPγS 10 nM, agonist in increasing concentration, DSV36S-Lumi4Tb/SC13533-d2 (FIG. 12B)): decrease in the TR-FRET signal | TR-FRET signal (HTRF ratio) generated by stimulation with the agonist (Delta Opioid GPCR [3]; Example 10, format 2B, GTPγS 10 nM, agonist in increasing concentration, sdAb-d2 ligand pairs (FIGS. 13B-19B)): decrease in the TR-FRET signal | TR-FRET signal (HTRF ratio) generated by stimulation with the agonist (Delta Opioid GPCR [3]; format 2B, HEK293 membranes, GTPγS 10 nM, agonist in increasing concentration, detection ligand pairs of Examples 1-4 (FIGS. 4B-7B)): decrease in the TR-FRET signal

NCCc1c[nH]c2ccc(O)cc12 [serotonin]
TR-FRET signal (HTRF ratio) generated by stimulation with the receptor agonist (5HT1A): decrease in the TR-FRET signal

Ser-Ser-Arg-Gly-Tyr-Tyr-His-Gly-Ile-Trp-Val-Gly-Glu-Glu-Gly-Arg-Leu-Ser-Arg (SSRGYYHGIWVGEEGRLSR; also: biotinylated, place not given here) [KB1753, biotinylated form generated by Cisbio Bioassays]
Form of the Galpha protein specifically bound (empty, GDP-bound, GTP/non-hydrolyzable GTP-bound) (Galpha protein): specifically binds the form of the Galpha GTP or GTP protein that is non-hydrolyzable or slowly hydrolyzable relative to the forms of the empty Galpha protein and GDP; also recorded: specifically recognizes the full Galpha protein bound to GTP

B1: DSV36S: anti-Galphai antibody generated by Cisbio Bioassays (antibody, V domains shown)
VH: EVQLQQSGAELVRPGALVKLSCKASGFNIKDYYMHWVKQRPEQGLEWIGWIDPENGNTIYDPKFQGKASITADTSSNTAYLQLSSLTSEDTAVYYCTRGGGYYSDWYFDVWGAGTTVTVSS
VL: QIVLTQSPAIMSASPGEKVTMTCSASSSVSYMHWYQQKSGTSPKRWIYDTSKLASGVPARFSGSGSGTSYSLTISSMEAEDAATYYCQQWSSNPPITFGAGTKLELK
Form of the Galpha protein specifically bound (empty, GDP-bound, GTP/non-hydrolyzable GTP-bound) (Galpha protein): specifically binds the form of the Galpha GTP or GTP protein that is non-hydrolyzable or slowly hydrolyzable relative to the forms of the empty Galpha protein and GDP
